Measured values reported in patent US20020019527A1 (priority 2000, published 2002).
Counter-ions that a name gives are not always drawn. Like-named read-outs stand apart in the source and are kept apart here.

Molecular target: T1, Farnesyltransferase (FTase) (Bos taurus, UniProt P29702+P49355)
T1 construct: precipitation from a beef brain homogenate; from tissue; host or cells: bovine brain
Test: Farnesyltransferase inhibition (scintillation proximity assay, [3H]-FPP / biotin-K-ras peptide)
Type: biochemical, bovine
Experimental: Farnesyltransferase (FTase) or geranylgeranyltransferase I (GGTase I) fractions were isolated from bovine brains and purified by a series of methods which separate FTase from GGTase I and GGTase I from GGTase II. The methods involved a partial purification of all three enzymes by precipitation from a beef brain homogenate with 30% to 50% saturated […] followed by chromatography on DEAE Sepharose. […] The catalytic purity of each enzyme was assayed separately with substrate acceptor proteins specific for that enzyme. After quickly freezing in liquid nitrogen, the various prenyl transferases were stored at −80° C.
The quenched reactions stood for 1 hour before analysis in a Packard TopCount scintillation counter. Purified compounds were dissolved in 100% ethanol and diluted 10-fold into the assay.

[1] = compound at 10^−6 M, bovine FTase, 37° C., 30 minutes

T1 sequence (P49355 whole entry, one chain of several): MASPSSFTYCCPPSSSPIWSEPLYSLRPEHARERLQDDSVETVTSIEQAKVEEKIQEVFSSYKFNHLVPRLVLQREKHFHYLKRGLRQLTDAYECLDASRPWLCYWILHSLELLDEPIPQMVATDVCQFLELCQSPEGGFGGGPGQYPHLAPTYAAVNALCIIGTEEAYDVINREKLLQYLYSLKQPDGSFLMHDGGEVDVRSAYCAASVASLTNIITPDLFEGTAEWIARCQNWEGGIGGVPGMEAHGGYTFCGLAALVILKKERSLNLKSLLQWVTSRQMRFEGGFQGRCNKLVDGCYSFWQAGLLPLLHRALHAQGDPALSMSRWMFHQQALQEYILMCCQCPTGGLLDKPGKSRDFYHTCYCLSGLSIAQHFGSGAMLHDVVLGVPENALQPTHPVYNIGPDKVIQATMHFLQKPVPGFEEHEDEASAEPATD

Compound | inhibition at 1 µM [1] [%] | further results
Cn1cncc1C(SCc1ccc(C#N)cc1)c1ccc(C#N)c(-c2cccc3ccccc23)c1 (stereo not drawn) [Example 62, 4-(((4-cyanobenzyl)sulfanyl)(1-methyl-1H-imidazol-5-yl)methyl)-2-(1-naphthyl)benzonitrile hydrochloride] | 100 | 
Cn1cncc1CN(Cc1cccc(Cl)c1)c1ccc(C#N)c(-c2cccc3ccccc23)c1 [Example 264, 4-((3-chlorobenzyl)((1-methyl-1H-imidazol-5-yl)methyl)amino)-2-(1-naphthyl)benzonitrile] | 100 | 
Cc1ccccc1-c1cc(C(OCc2cc(F)ccc2F)c2cncn2C)ccc1C#N (stereo not drawn) [Example 129, 5-(((2,5-difluorobenzyl)oxy)(1-methyl-1H-imidazol-5-yl)methyl)-2′-methyl(1,1′-biphenyl)-2-carbonitrile hydrochloride] | 93 | 
CC(C)c1ccccc1-c1cc(C(OCc2ccccc2)c2cncn2C)ccc1C#N (stereo not drawn) [Example 8, 5-((benzyloxy)(1-methyl-1H-imidazol-5-yl)methyl)-2′-isopropyl(1,1′-biphenyl)-2-carbonitrile hydrochloride] | 100 | 
Cn1cncc1C(OCc1ccc(C#N)cc1)c1ccc(C#N)c(-c2ccccc2C(=O)O)c1 (stereo not drawn) [Example 205, 2′-cyano-5′-(((4-cyanobenzyl)oxy)(1-methyl-1H-imidazol-5-yl)methyl)(1,1′-biphenyl)-2-carboxylic acid] | 90 | 
Cc1ccccc1-c1cc(C(OCc2ccc(Cl)cc2)c2cncn2C)ccc1C#N (stereo not drawn) [Example 133, 5-(((4-chlorobenzyl)oxy)(1-methyl-1H-imidazol-5-yl)methyl)-2′-methyl(1,1′-biphenyl)-2-carbonitrile hydrochloride] | 97 | 
Cc1ccccc1-c1cc(C(OCc2cccc(I)c2)c2cncn2C)ccc1C#N (stereo not drawn) [Example 117, 5-(((3-iodobenzyl)oxy)(1-methyl-1H-imidazol-5-yl)methyl)-2′-methyl(1,1′-biphenyl)-2-carbonitrile hydrochloride] | 90 | 
COC(=O)c1ccc(CN(Cc2cncn2C)c2ccc(C#N)c(-c3cccc4ccccc34)c2)cc1 [Example 268, methyl 4-((4-cyano((1-methyl-1H-imidazol-5-yl)methyl)-3-(1-naphthyl)anilino)methyl)benzoate] |  | % Inhibition at 10^−6M [1]: 100%
Cc1ccccc1-c1cc(C(OCc2ccccc2)c2cncs2)ccc1C#N (stereo not drawn) [Example 213, 5-((benzyloxy)(1,3-thiazol-5-yl)methyl)-2′-methyl(1,1′-biphenyl)-2-carbonitrile hydrochloride] | 41 | 
Cc1ccccc1-c1cc(C(NCc2ccc([N+](=O)[O-])cc2)c2cncn2C)ccc1C#N (stereo not drawn) [Example 12] |  | % Inhibition at 10^−6M: 100%
Cc1ccc(COC(c2ccc(C#N)c(-c3ccccc3C)c2)c2cncn2C)cc1.Cl (stereo not drawn) [Example 127] |  | % Inhibition at 10^−6M: 93%
Cn1cncc1C(OCc1ccc(C#N)cc1)c1ccc(C#N)c(-c2cc3ccccc3s2)c1 (stereo not drawn) [Example 203, 2-(1-benzothien-2-yl)-4-(((4-cyanobenzyl)oxy)(1-methyl-1H-imidazol-5-yl)methyl)benzonitrile hydrochloride] | 86 | 
Cc1ccccc1-c1cc(C(OCc2cc3c(cc2Cl)OCO3)c2cncn2C)ccc1C#N (stereo not drawn) [Example 152, 5-(((6-chloro-1,3-benzodioxol-5-yl)methoxy)(1-methyl-1H-imidazol-5-yl)methyl)-2′-methyl(1,1′-biphenyl)-2-carbonitrile hydrochloride] | 89 | 
Cn1cncc1C(OCc1ccc(Br)cc1)c1ccc(C#N)c(-c2cccc3ccccc23)c1 (stereo not drawn) [Example 263, 4-(((4-bromobenzyl)oxy)(1-methyl-1H-imidazol-5-yl)methyl)-2-(1-naphthyl)benzonitrile] | 100 | 
Cc1ccccc1-c1cc(C(OCc2cccc(OC(F)(F)F)c2)c2cncn2C)ccc1C#N.Cl (stereo not drawn) [Example 143] |  | % Inhibition at 10^−6M: 97%
Cc1ccccc1-c1cc(C(OCc2ccccc2)c2cnnn2C)ccc1C#N (stereo not drawn) [Example 81, 5-((benzyloxy)(1-methyl-1H-1,2,3-triazol-5-yl)methyl)-2′-methyl(1,1′-biphenyl)-2-carbonitrile hydrochloride] | 14 | 
CNC(=O)c1ccc(COC(c2ccc(C#N)c(-c3ccccc3C)c2)c2cncn2C)cc1 (stereo not drawn) [Example 189, 4-(((6-cyano-2′-methyl(1,1′-biphenyl)-3-yl)(1-methyl-1H-imidazol-5-yl)methoxy)methyl)-N-methylbenzamide] | 95 | 
Cc1cccc(-c2cc(C(OCc3ccc(C#N)cc3)c3cncn3C)ccc2C#N)c1C (stereo not drawn) [Example 278, 5-(((4-cyanobenzyl)oxy)(1-methyl-1H-imidazol-5-yl)methyl)-2′,3′-dimethyl(1,1′-biphenyl)-2-carbonitrile hydrochloride] | 99 | 
Cc1ccccc1-c1cc(C(OCc2ccc(S(C)(=O)=O)cc2)c2cncn2C)ccc1C#N.Cl (stereo not drawn) [Example 151] |  | % Inhibition at 10^−6M: 94%
CC(=O)Nc1ccc(CNC(c2ccc(C#N)c(-c3cccc4ccccc34)c2)c2cncn2C)cc1 (stereo not drawn) [Example 53, N-(4-((((4-cyano-3-(1-naphthyl)phenyl)(1-methyl-1H-imidazol-5-yl)methyl)amino)methyl)phenyl)acetamide dihydrochloride] | 100 | 
N#Cc1ccc(COC(c2ccsc2)c2ccc(C#N)c(-c3cccc4ccccc34)c2)nc1 (stereo not drawn) [Example 289, 6-(((4-cyano-3-(1-naphthyl)phenyl)(3-thienyl)methoxy)methyl)nicotinonitrile] | 75 | 

The next lines start with results.

inhibition at 1 µM [1] [%] | Compound | further results
96 | Cc1ccccc1-c1cc(C(OCc2ccc(F)c(F)c2)c2cncn2C)ccc1C#N (stereo not drawn) [Example 147, 5-(((3,4-difluorobenzyl)oxy)(1-methyl-1H-imidazol-5-yl)methyl)-2′-methyl(1,1′-biphenyl)-2-carbonitrile hydrochloride] | 
93 | Cn1cncc1CN(Cc1ccc(C#N)c(-c2cccc3ccccc23)c1)C(=O)c1ccc(Cl)c(Cl)c1 [Example 197, 3,4-dichloro-N-(4-cyano-3-(1-naphthyl)benzyl)-N-((1-methyl-1H-imidazol-5-yl)methyl)benzamide] | 
94 | Cc1ccccc1-c1cc(C(OCc2ccccc2Cl)c2cncn2C)ccc1C#N (stereo not drawn) [Example 132, 5-(((2-chlorobenzyl)oxy)(1-methyl-1H-imidazol-5-yl)methyl)-2′-methyl(1,1′-biphenyl)-2-carbonitrile hydrochloride] | 
92 | Cc1ccccc1-c1cc(C(OCc2ccccc2C#N)c2cncn2C)ccc1C#N (stereo not drawn) [Example 126, 5-(((2-cyanobenzyl)oxy)(1-methyl-1H-imidazol-5-yl)methyl)-2′-methyl(1,1′-biphenyl)-2-carbonitrile hydrochloride] | 
100 | Cn1cncc1CN(Cc1cccc(C#N)c1)c1ccc(C#N)c(-c2cccc3ccccc23)c1 [Example 266, 4-((3-cyanobenzyl)((1-methyl-1H-imidazol-5-yl)methyl)amino)-2-(1-naphthyl)benzonitrile] | 
100 | Cn1cncc1CN(Cc1ccc(Cl)cc1)Cc1ccc(C#N)c(-c2cccc3ccccc23)c1 [Example 40, 4-(((4-chlorobenzyl)((1-methyl-1H-imidazol-5-yl)methyl)amino)methyl)-2-(1-naphthyl)benzonitrile dihydrochloride] | 
71 | Cc1ccccc1-c1cc(N(Cc2ccccc2)Cc2cccnc2)ccc1C#N [Example 217, 5-(benzyl(3-pyridinylmethyl)amino)-2′-methyl(1,1′-biphenyl)-2-carbonitrile] | 
100 | Cn1cncc1C(OCc1ccc(C#N)c(F)c1)c1ccc(C#N)c(-c2cccc3ccccc23)c1 (stereo not drawn) [Example 77, 4-(((4-cyano-3-fluorobenzyl)oxy)(1-methyl-1H-imidazol-5-yl)methyl)-2-(1-naphthyl)benzonitrile hydrochloride] | 
100 | Cn1cncc1C(OCc1ccc(C#N)c(I)c1)c1ccc(C#N)c(-c2cccc3ccccc23)c1 (stereo not drawn) [Example 63, 4-(((4-cyano-3-iodobenzyl)oxy)(1-methyl-1H-imidazol-5-yl)methyl)-2-(1-naphthyl)benzonitrile hydrochloride] | 
99 | Cn1cncc1CN(Cc1ccc(C#N)cc1)Cc1ccc(C#N)c(-c2cccc3cccnc23)c1 [Example 114, 4-(((4-cyanobenzyl)((1-methyl-1H-imidazol-5-yl)methyl)amino)methyl)-2-(8-quinolinyl)benzonitrile] | 
100 | Cn1cncc1C(NCc1ccc(C#N)c(I)c1)c1ccc(C#N)c(-c2cccc3ccccc23)c1 (stereo not drawn) [Example 37, 4-(((4-cyano-3-iodobenzyl)amino)(1-methyl-1H-imidazol-5-yl)methyl)-2-(1-naphthyl)benzonitrile dihydrochloride] | 
92 | Cc1ccccc1-c1cc(C(OCc2cc(F)cc3c2OCOC3)c2cncn2C)ccc1C#N (stereo not drawn) [Example 156, 5-(((6-fluoro-4H-1,3-benzodioxin-8-yl)methoxy)(1-methyl-1H-imidazol-5-yl)methyl)-2′-methyl(1,1′-biphenyl)-2-carbonitrile hydrochloride] | 
12 | Cc1ccccc1-c1cc(C(OCc2ccccc2)c2ccsc2)ccc1C#N (stereo not drawn) [Example 80, 5-((benzyloxy)(3-thienyl)methyl)-2′-methyl(1,1′-biphenyl)-2-carbonitrile] | 
53 | Cn1cncc1C(OCc1ccccc1)c1ccc(C#N)c(-c2ccc3ccccc3c2)c1 (stereo not drawn) [Example 92, 4-((benzyloxy)(1-methyl-1H-imidazol-5-yl)methyl)-2-(2-naphthyl)benzonitrile hydrochloride] | 
27 | Cc1ccccc1-c1cc(NCc2cccnc2)ccc1C#N [Example 216, 2′-methyl-5-((3-pyridinylmethyl)amino)(1,1′-biphenyl)-2-carbonitrile] | 
